Results on seven compounds are retold here after US20160102365A1, “ASSAYS, METHODS AND KITS FOR ANALYZING SENSITIVITY AND RESISTANCE TO ANTI-CANCER DRUGS, PREDICTING A CANCER PATIENT'S PROGNOSIS, AND PERSONALIZED TREATMENT STRATEGIES” (UNIVERSITY OF MIAMI, priority 2013, published 2016).

What all share (type): cell-based, human
The subject of one test is OCI ovarian tumor lines. As to the kind of experiment: Panel of oncology drugs: viable cells by Alamar Blue, OCI versus ATCC ovarian tumor lines. The conditions noted are these: 5000 cells/well, WIT-OC medium, serial dilutions, 72-144 hrs incubation. The procedure: In these experiments, ATCC ovarian tumor lines (SKOV3, OV90, TOV-1120 and A2780) and OCI ovarian tumor lines (FCI-P2p, OCI-P5x, OCI-P2a, OCI-C4p, OCI-P7a, OCI-05x, OCI-CSp, FCI-P1p, OCI-P9a1, OCI-P8p, OCI-P3a, OCI-P1a) were plated in WIT-OC medium (5000 cells/well) in 96 well plates. The next day serial dilutions of Taxol, Vincristine, U0126, PJ34, Adriamycin, AS703026, 5-fluorouracil, Cisplatin, PLX4720 and PJ34 were added. The number of viable cells was measured as 590/530 florescence via Alamar Blue after 72-144 hrs incubation, depending on drug. […] Thus, the methods described herein of analyzing sensitivity of a subject's cancerous tumor to an oncology drug and developing a personalized therapy for the subject can be used for any drug.

Test [1] has as its system OCI lines in mRNA/RPPA Cluster 1. As to the kind of experiment: Taxol drug sensitivity (metabolic activity / viability) of OCI lines in mRNA/RPPA Cluster 1 compared to SOC lines. The procedure: FIG. 2: Gene expression profiling and Taxol Response of ovarian cancer cell lines identifies two major classes. A) Taxol response of OCI and SOC cell lines in mRNA/RPPA (Reverse Phase Protein Analysis) Cluster 1 vs. Cluster 2. The OCI and SOC lines were plated in triplicates in WIT-OC medium (5000 cells/well) in 96 well plates. The next day 20 nM Taxol was added and metabolic activity was measured as 590/530 fluorescence via Alamar Blue after 5 days. OCI cell lines in mRNA/RPPA Cluster 1 (blue bars), SOC cell lines in Cluster 2 (red bars), OCI lines in Cluster 2 (white bars). The results are representative of more than three four different experiments. B) Proteins that are over-expressed in OCI mRNA/RPPA Cluster 1. […] The data are presented in matrix format in which rows represent cell lines and columns represent antibody probes for each protein. The red and green colors reflect relative high and low expression levels respectively. C) Hierarchical clustering of mRNA data from OCI and SOC lines. […]
(§1) Drug sensitivity experiments: The relative sensitivities of OCI and SOC cell lines to chemotherapy drugs was measured by seeding an equal number of cells in six replicates in 96-well black-walled clear bottom Corning plates at 3000 cells/well, and allowing attachment in WIT-OC for 12 h. […] The fraction of metabolically active cells after drug treatment was measured by incubation with 2:10 (v/v) CellTiter-Blue reagent (Promega Cat#G8081) in media for 2 h, and the reaction was stopped by addition of 3% SDS. Fluorescence was measured in a SpectraMax M5 plate reader (Molecular Devices, CA) using SoftMax software (555EX/585EM).
Drug sensitivity experiments: The relative sensitivities of OCI and SOC cell lines to Taxol was measured by seeding 3000 cells/well in six replicates in 96-well black-walled clear bottom Corning plates and allowing attachment in WIT-OC for 12 h. […] The fraction of metabolically active cells after drug treatment was measured by incubation with 2:10 (v/v) CellTiter-Blue reagent (Promega Cat#G8081) in media for 2 h, and the reaction was stopped by addition of 3% SDS. […]

A further test deals with OCI lines in Cluster 2. Nature of the test: Taxol drug sensitivity of the subset of OCI lines in Cluster 2. The conditions noted are these: WIT-OC medium; similar to SOC lines. The procedure: FIG. 2: Gene expression profiling and Taxol Response of ovarian cancer cell lines identifies two major classes. A) Taxol response of OCI and SOC cell lines in mRNA/RPPA (Reverse Phase Protein Analysis) Cluster 1 vs. Cluster 2. The OCI and SOC lines were plated in triplicates in WIT-OC medium (5000 cells/well) in 96 well plates. The next day 20 nM Taxol was added and metabolic activity was measured as 590/530 fluorescence via Alamar Blue after 5 days. OCI cell lines in mRNA/RPPA Cluster 1 (blue bars), SOC cell lines in Cluster 2 (red bars), OCI lines in Cluster 2 (white bars). The results are representative of more than three four different experiments. B) Proteins that are over-expressed in OCI mRNA/RPPA Cluster 1. […]
as §1, with “(555EX/585EM). […]” for “(555EX/585EM).”

A further test has as its system OCI and SOC cell lines. Nature of the test: Drug sensitivity experiments, response compared between OCI and SOC lines in WIT-OC medium. The procedure:
Drug sensitivity experiments: The relative sensitivities of OCI and SOC cell lines to chemotherapy drugs was measured by seeding an equal number of cells in six replicates in 96-well black-walled clear bottom Corning plates at 3000 cells/well, and allowing attachment in WIT-OC for 12 h. Both OCI and SOC cell lines were exposed to drugs in WIT-OC medium. The cell lines were cultured in the presence of drug or vehicle control for 96 h. The fraction of metabolically active cells after drug treatment was measured by incubation with 2:10 (v/v) CellTiter-Blue reagent (Promega Cat#G8081) in media for 2 h, and the reaction was stopped by addition of 3% SDS. Fluorescence was measured in a SpectraMax M5 plate reader (Molecular Devices, CA) using SoftMax software (555EX/585EM).

Take `O=c1[nH]cc(F)c(=O)[nH]1` [5-fluorouracil]: in the test with OCI ovarian tumor lines, the “Resistance of OCI lines to inhibition of cell proliferation compared to standard (ATCC) cell lines” value was “more resistant”.

In the case of `CN(C)CC(=O)Nc1ccc2[nH]c(=O)c3ccccc3c2c1` [PJ34], in the test on OCI ovarian tumor lines, the “Resistance of OCI lines to inhibition of cell proliferation compared to standard (ATCC) cell lines” value was “more resistant”.

For the compound `COc1cccc2c1C(=O)c1c(O)c3c(c(O)c1C2=O)C[C@@](O)(C(=O)CO)C[C@@H]3O[C@H]1C[C@H](N)[C@H](O)[C@H](C)O1` [Adriamycin], the “Resistance of OCI lines to inhibition of cell proliferation compared to standard (ATCC) cell lines” value in the test on OCI ovarian tumor lines is reported as “more resistant”.

Consider `CC(=O)O[C@H]1C(=O)[C@@]2(C)[C@H]([C@H](OC(=O)c3ccccc3)[C@]3(O)C[C@H](OC(=O)[C@H](O)[C@@H](NC(=O)c4ccccc4)c4ccccc4)C(C)=C1C3(C)C)[C@]1(OC(C)=O)CO[C@@H]1C[C@@H]2O` [Taxol], for which the IC50 (commonly the concentration that inhibits the measured activity by half) in test [1] (Homo sapiens, OCI lines plated in WIT-OC medium) was in the range of 10 to 100 nM. The “IC50 fold higher than the IC50 values in SOC lines in mRNA/RPPA Cluster 2” value in test [1] (OCI Cluster 1 vs SOC Cluster 2, WIT-OC medium) is 5-10 fold. Also, in test [1] (WIT-OC medium, confirmed with a full dose-response curve), the “Sensitivity to Taxol of OCI lines in Cluster 1 relative to SOC lines in Cluster 2” value is recorded as “less sensitive”. For the same compound, in the test on OCI lines in Cluster 2, the “Sensitivity to Taxol of OCI lines in Cluster 2 compared to OCI lines in Cluster 1” value was “more sensitive”.

For `CC[C@]1(O)C[C@H]2CN(CCc3c([nH]c4ccccc34)[C@@](C(=O)OC)(c3cc4c(cc3OC)N(C=O)[C@H]3[C@@](O)(C(=O)OC)[C@H](OC(C)=O)[C@]5(CC)C=CCN6CC[C@]43[C@@H]65)C2)C1` [Vincristine], the “Difference in drug response between OCI and SOC lines” value with OCI and SOC cell lines is “similarly different”.

For `N#CC(=C(/N)Sc1ccccc1N)/C(C#N)=C(\N)Sc1ccccc1N` [U0126], the “Resistance of OCI lines to inhibition of cell proliferation compared to standard (ATCC) cell lines” value in the test on OCI ovarian tumor lines is “more resistant”.

On to `N.N.[Cl][Pt][Cl]` [Cisplatin], for which the “Difference in drug response between OCI and SOC lines” value in the test with OCI and SOC cell lines was “did not find a significant difference”.
